Measured values: patent publication US20240139167A1, “LYSOSOME-ASSOCIATED MEMBRANE PROTEIN TARGETING COMPOUNDS AND USES THEREOF” (HADASIT MEDICAL RESEARCH SERVICES AND DEVELOPMENT LTD., priority 2021, published 2024)

Tests used:
[1] = system: LAMP1-KD and control APBD fibroblasts; assay: ATP Rate Assay in LAMP1-KD and control cells; format: cell-based, human
From the text: FIGS. 6A-6E include bar graphs of autophagic flux, determined by the extent of lysosomal inhibitors-dependent increase in the ratio of lipidated to non-lipidated LC3 (LC3II/LC3I) (6A); representative TEM images of liver tissue from 9.5 month old Gbe^ys/ys mice treated with Compound 11, or 5% DMSO vehicle (6B), G: Glycogen (alpha particles) and polyglucosan (structures with variable electron densities), L: Lysosomes, M: Mitochondria; right panel: lysosomal glycogen stain was quantified by ImageJ “count particle” tool; micrograph of LAMP1 knocked down and control APBD primary skin fibroblasts treated or not with Compound 1 and lysosomal inhibitors (LI) and quantification of 3 experiments and results of Student's t-tests. *, p<0.1; **, p<0.05; ***, p<0.01 (6C); graphs of lysosomal pH changes determined in APBD primary fibroblasts transduced with lentiviruses encoding for GFP or GFP-shLAMP1 and treated or not with Compound 1 for 24 h and confocal microscope images of cells treated with Lysosensor and stained for PAS (6D); and bar graph of ATP production rate assay in LAMP1-KD and GFP (Control) cells treated for 24 h (chronic) or on assay (acute) with Compound 1 (6E).
To test the effect of LAMP1-KD and Compound 1 on fuel utilization, the inventors again used the ATP Rate Assay (FIGS. 4A-4D) in LAMP1-KD and control APBD fibroblasts acutely or chronically treated with Compound 1.

[2] = Pharmacokinetics, tissue levels by LC-MS/MS; format: in vivo, mice; details: 250 mg/kg subcutaneous
From the text: FIGS. 2A-2C include images and graphs of histopathological effects of Compound 1 and its pharmacokinetics: right panel present images of indicated tissues of sacrificed mice and stained for PG (arrows) with PAS following treatment with diastase; left panel, presents bar graphs quantifying PAS staining, based on analysis of 4 sections from each tissue in n=2 wild type, n=7 Gbe^ys/ys vehicle-treated, and n=9 Compound 1-treated mice (2A); bar graph quantifying total glycogen in the respective tissues (2B); graph of Compound 1pharmacokinetics (2C); 9 months old Gbe^ys/ys mice were SC-injected with 150 μL of Compound 1 at 250 mg/kg. Mice were sacrificed 30-, 60-, 90-, and 210-min post injection and the indicated tissues were removed, as well as 200 μL of serum drawn. […] Shown are means and SEM of results obtained from n=3 mice at each time point.
For pharmacokinetic analysis, 100 μL serum as well as brain, kidney, hind limb quad muscle, heart, liver, and spleen tissues were collected, homogenized, and extracted with acetonitrile following established guidelines. Calibration curves were made with 0, 1, 10, 100, and 1,000 ng/ml Compound 1 in 1 mg/ml solutions of 4-tert-butyl-2-(4H-1,2,4-triazol-4-yl)phenol (ChemBridge) as internal standard (IS). Tissue samples were then dissolved in 1 mg/ml IS solutions and spiked with 0-1,000 ng/ml Compound 1 to generate standard curves from which tissue levels of Compound 1 were determined. Samples were analyzed by the LC-MS/MS Sciex Triple Quad™ 5500 mass spectrometer.
Pharmacokinetic analysis is instrumental for explaining the effects of Compound 1 in-situ regardless of its innate capacity to modify polyglucosans in isolated cells. The reason for that is that timing of arrival, distribution and stability in the tissue are key determinants of the in-situ activity of any pharmacological agent. To determine the distribution and kinetic parameters of Compound 1 in different tissues, the inventors have treated Gbe^ys/ys mice with 250 mg/kg Compound 1 via subcutaneous injection, as done in the efficacy experiments. Mice were then sacrificed 0, 30-, 60-, 90-, and 210-min post administration and 100 μL serum as well as brain, kidney, hind limb skeletal muscle, heart, liver, and spleen tissues were collected, homogenized, extracted and their Compound 1 levels were analyzed by liquid chromatography tandem mass spectrometry (LC-MS/MS). The differential effects of Compound 1 on glycogen and polyglucosan content in the different tissues match its differential distribution and dwell time in each respective tissue. […] However, those levels persist up until 60 minutes post injection, which might account for the Compound 1-mediated reduction in polyglucosan, and glycogen content observed in these tissues. […] Based on the sampling times used, time to C. was 30 min for all the tissues studied indicating similar rate of absorption to all these tissues. The highest C. is observed in liver and kidney matching their well-established rapid perfusion.

[3] = system: HC and PD patient fibroblasts; assay: Seahorse ATP rate assay in Pompe disease fibroblasts; format: cell-based, human
Procedure: FIG. 17 includes a vertical bar graph showing glycolytic (1) and mitochondrial (2) ATP production determined by Agilent's Seahorse machine and ATP rate assay kit. HC and PD patient fibroblasts were serum/glucose-starved for 48 h and then full medium was replenished for 24 h without (untreated), or with (chronic) 50 μM 144DG11. Acute, 50 μM 144DG11 was added on assay for 20 min after 24 h of serum/glucose replenishment. Readings were normalized to cell number as determined by Crystal Violet staining. Shown are mean and SD values based on n=6 repeats. In acutely 144DG11-treated PD fibroblasts, glycolytic and total ATP production was increased, as compared to untreated PD cells (p<0.002, One Way ANOVA with Sidak's post-hoc correction for multiple comparisons).

Structure (SMILES): COCCN(Cc1sccc1C)C(=O)c1cc(C)nc(O)c1 [Compound 1]
- ATP production ([1]; LAMP1-KD cells, non-starved, chronic and acute): significantly increased total and respiratory ATP production
- ATP production ([1]; LAMP1-KD cells, starved, acute): increased both respiratory and glycolytic ATP
- ATP production ([1]; LAMP1-KD cells, starved, chronic): only respiratory ATP production increased
- ATP production ([1]; control cells, non-starved): only slightly influenced ATP production, and even acutely decreased it
- ATP production ([1]; control cells, starved, acute): only increased respiratory ATP production
- ATP production ([1]; control cells, starved, chronic): No significant effect
- C. in liver and kidney, rank among tissues [2]: highest
- C. in skeletal quadriceps muscle, rank among tissues [2]: lowest
- accumulation in muscle [2]: negligible accumulation
- levels in heart and brain [2]: intermediate levels
- persistence of levels in heart and brain post injection [2]: ≤ 60 min
- time to C. ([2]; all the tissues studied): 30 min
- half-life ([2]; mouse, liver, sc, Gbe^ys/ys mice): > 3 h
- effect on ATP production ([3]; 24 h pre-treatment): not significant
- overall ATP production ([3]; PD fibroblasts, 50 μM): increased
- relative contribution of glycolytic ATP production at the expense of mitochondrial (OxPhos) ATP production ([3]; PD fibroblasts, 50 μM): increased
- glycolytic and total ATP production ([3]; PD fibroblasts, acute 50 μM 20 min, p<0.002): increased
